# Source: PMC12624743 (ACS Infectious Diseases, 2025)
# Experiments:
# [1] = biological target: T1, N. gonorrhoeae gyrase GyrA^S91F (Neisseria gonorrhoeae, UniProt P48371, S91F); assay: Gyrase-catalyzed DNA supercoiling assay, GyrA^S91F; type: biochemical
# T1 construct: His; made in house
# Procedure: (§1) All proteins were His-tagged. N. gonorrhoeae WT gyrase (GyrA, GyrB) and topoisomerase IV (ParC, ParE) subunits as well as mutant GyrA^D90N, GyrA^A92T, GyrA^S91F, and GyrA^S91F/D95G gyrase and ParC^D86N and ParC^S88P topoisomerase IV were prepared as described previously. , N. gonorrhoeae mutant GyrA^D95G gyrase and mutant ParC^S87N and ParC^E91G topoisomerase IV were generated using a QuickChange II XL site-directed mutagenesis kit (Agilent Technologies) with custom primers for the desired mutations. […] The identities of all constructs were confirmed by DNA sequencing, and all enzymes were stored at −80 °C. In all assays, N. gonorrhoeae gyrase or topoisomerase IV was used as a 1:1 GyrA:GyrB or ParC:ParE mixture, respectively, and the stated enzyme concentration reflects that of the holoenzyme (A2B2).
# (§2) Samples were mixed with 2 μL of loading dye [60% sucrose, 10 mM Tris–HCl (pH 7.9), 0.5% bromophenol blue, and 0.5% xylene cyanol FF] and incubated at 45 °C for 2 min before being subjected to electrophoresis on 1% agarose gels in 100 mM Tris-borate (pH 8.3) and 2 mM EDTA. […] DNA bands were visualized with medium-range ultraviolet light and quantified using an Alpha Innotech digital imaging system (Protein Simple). DNA supercoiling was monitored by the conversion of relaxed to supercoiled plasmid.
# [2] = test system: N. gonorrhoeae FA1090E-3 (GyrA^A92T/ParC^D86N); assay: MIC by agar dilution, GyrA^A92T/ParC^D86N strain; type: cell-based, Neisseria gonorrhoeae
# Procedure: This strain was designated FA1090E-3 (GyrA^A92T/ParC^D86N).
# (§3) Minimum inhibitory concentration (MIC) of test compounds was determined by an agar dilution method, the reference testing method for N. gonorrhoeae according to the standards of the Clinical and Laboratory Standards Institute and the CDC.
# [3] = test system: N. gonorrhoeae FA1090E-4 (GyrA^D90N/ParC^WT); assay: MIC by agar dilution, GyrA^D90N strain; type: cell-based; conditions: Neisseria gonorrhoeae
# Procedure: This strain was designated FA1090E-4 (GyrA^D90N).
# as §3
# [4] = test system: N. gonorrhoeae FA1090E (GyrA^WT/ParC^WT, efflux mutant); assay: MIC by agar dilution, WT/WT efflux-mutant parental strain; type: cell-based; conditions: Neisseria gonorrhoeae, 48 h
# Procedure: Mutations in these efflux genes can result in increased efflux to multiple antibiotics. […] Parental and isogenic mutant strains generated that carried the efflux mutations mtrR-79 and norM ΔT T6 were designated as FA1090E (E for efflux positive). Only the additional GyrA and ParC genotypes are described in Table and in the text. The mutant that additionally expressed ParC^D86N was named FA1090E-2.
# as §3
# [5] = biological target: N. gonorrhoeae topoisomerase IV ParC^E91G (Neisseria gonorrhoeae, UniProt P48374, E91G); assay: Topoisomerase IV-catalyzed DNA decatenation assay, ParC^E91G; type: biochemical; set-up: His; made in house
# Sequence of N. gonorrhoeae topoisomerase IV ParC^E91G (P48374 whole entry E91G): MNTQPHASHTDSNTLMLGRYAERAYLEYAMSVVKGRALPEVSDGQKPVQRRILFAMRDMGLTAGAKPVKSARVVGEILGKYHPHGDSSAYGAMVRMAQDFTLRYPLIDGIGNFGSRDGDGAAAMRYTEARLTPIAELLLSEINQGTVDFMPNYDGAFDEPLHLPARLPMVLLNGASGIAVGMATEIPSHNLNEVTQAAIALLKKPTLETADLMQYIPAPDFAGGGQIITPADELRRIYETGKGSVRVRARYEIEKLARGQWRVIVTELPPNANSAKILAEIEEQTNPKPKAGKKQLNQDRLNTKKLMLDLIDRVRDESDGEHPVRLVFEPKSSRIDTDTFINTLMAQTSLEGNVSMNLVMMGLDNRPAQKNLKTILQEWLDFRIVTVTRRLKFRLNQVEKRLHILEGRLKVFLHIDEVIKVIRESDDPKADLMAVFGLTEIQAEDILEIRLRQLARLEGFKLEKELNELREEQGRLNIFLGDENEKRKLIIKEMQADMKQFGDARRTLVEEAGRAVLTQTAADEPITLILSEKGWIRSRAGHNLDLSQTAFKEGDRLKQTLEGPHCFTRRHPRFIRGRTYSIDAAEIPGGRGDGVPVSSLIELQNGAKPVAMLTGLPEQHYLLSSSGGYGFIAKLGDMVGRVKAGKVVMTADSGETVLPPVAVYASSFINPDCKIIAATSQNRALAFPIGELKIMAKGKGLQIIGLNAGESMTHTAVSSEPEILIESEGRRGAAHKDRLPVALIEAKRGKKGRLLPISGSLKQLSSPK
# Procedure: All proteins were His-tagged. N. gonorrhoeae WT gyrase (GyrA, GyrB) and topoisomerase IV (ParC, ParE) subunits as well as mutant GyrA^D90N, GyrA^A92T, GyrA^S91F, and GyrA^S91F/D95G gyrase and ParC^D86N and ParC^S88P topoisomerase IV were prepared as described previously. , N. gonorrhoeae mutant GyrA^D95G gyrase and mutant ParC^S87N and ParC^E91G topoisomerase IV were generated using a QuickChange II XL site-directed mutagenesis kit (Agilent Technologies) with custom primers for the desired mutations. Mutant N. gonorrhoeae GyrA and ParC subunits were expressed and purified as described by Ashley et al. with the following modifications to optimize protein expression and lysis: (1) GyrA^D95G was expressed for 2.5 h and ParC^S87N and ParC^E91G were expressed for 3 h before harvesting, and (2) cells were lysed by sonication using a digital sonifier (Branson). The identities of all constructs were confirmed by DNA sequencing, and all enzymes were stored at −80 °C. In all assays, N. gonorrhoeae gyrase or topoisomerase IV was used as a 1:1 GyrA:GyrB or ParC:ParE mixture, respectively, and the stated enzyme concentration reflects that of the holoenzyme (A2B2). […]
# WT N. gonorrhoeae gyrase = biological target: T2, WT N. gonorrhoeae gyrase (Neisseria gonorrhoeae, UniProt P48371); assay: Gyrase-catalyzed DNA supercoiling assay, WT; type: biochemical; conditions: relaxed pBR322, 1.5 mM ATP, read-out: IC50, inhibition of DNA supercoiling
# T2 construct: His; made in house
# Procedure: as §1, §2
# [6] = biological target: T3, N. gonorrhoeae gyrase GyrA^S91F/D95G (Neisseria gonorrhoeae, UniProt P48371, D95G/S91F); assay: Gyrase-catalyzed DNA supercoiling assay, GyrA^S91F/D95G; type: biochemical; conditions: read-out: IC50, inhibition of DNA supercoiling
# T3 construct: His; made in house
# T3 sequence (P48371 whole entry S91F/D95G): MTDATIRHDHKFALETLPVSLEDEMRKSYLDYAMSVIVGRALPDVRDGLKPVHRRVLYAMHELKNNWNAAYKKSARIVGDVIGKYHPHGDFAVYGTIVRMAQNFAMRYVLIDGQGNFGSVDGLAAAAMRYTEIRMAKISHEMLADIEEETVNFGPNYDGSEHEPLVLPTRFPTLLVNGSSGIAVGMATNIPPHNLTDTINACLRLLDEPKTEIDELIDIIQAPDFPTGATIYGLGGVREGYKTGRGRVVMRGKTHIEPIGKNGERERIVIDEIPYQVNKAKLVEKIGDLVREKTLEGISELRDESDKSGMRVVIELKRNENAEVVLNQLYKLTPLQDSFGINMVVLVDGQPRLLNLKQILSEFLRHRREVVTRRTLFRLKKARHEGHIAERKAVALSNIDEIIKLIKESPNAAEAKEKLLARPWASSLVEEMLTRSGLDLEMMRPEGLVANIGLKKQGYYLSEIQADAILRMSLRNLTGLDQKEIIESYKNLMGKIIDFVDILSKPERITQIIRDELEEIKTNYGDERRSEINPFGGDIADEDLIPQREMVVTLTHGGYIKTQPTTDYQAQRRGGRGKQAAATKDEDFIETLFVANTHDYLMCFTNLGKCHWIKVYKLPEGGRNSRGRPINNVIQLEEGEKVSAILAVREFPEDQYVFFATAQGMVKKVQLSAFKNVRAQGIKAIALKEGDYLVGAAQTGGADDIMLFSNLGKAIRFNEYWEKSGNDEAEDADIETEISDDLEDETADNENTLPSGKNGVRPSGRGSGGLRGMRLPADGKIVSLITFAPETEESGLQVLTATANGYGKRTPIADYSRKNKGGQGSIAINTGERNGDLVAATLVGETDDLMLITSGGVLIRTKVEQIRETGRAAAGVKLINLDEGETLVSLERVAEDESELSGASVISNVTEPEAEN
# T3 sequence (P22118 whole entry partner): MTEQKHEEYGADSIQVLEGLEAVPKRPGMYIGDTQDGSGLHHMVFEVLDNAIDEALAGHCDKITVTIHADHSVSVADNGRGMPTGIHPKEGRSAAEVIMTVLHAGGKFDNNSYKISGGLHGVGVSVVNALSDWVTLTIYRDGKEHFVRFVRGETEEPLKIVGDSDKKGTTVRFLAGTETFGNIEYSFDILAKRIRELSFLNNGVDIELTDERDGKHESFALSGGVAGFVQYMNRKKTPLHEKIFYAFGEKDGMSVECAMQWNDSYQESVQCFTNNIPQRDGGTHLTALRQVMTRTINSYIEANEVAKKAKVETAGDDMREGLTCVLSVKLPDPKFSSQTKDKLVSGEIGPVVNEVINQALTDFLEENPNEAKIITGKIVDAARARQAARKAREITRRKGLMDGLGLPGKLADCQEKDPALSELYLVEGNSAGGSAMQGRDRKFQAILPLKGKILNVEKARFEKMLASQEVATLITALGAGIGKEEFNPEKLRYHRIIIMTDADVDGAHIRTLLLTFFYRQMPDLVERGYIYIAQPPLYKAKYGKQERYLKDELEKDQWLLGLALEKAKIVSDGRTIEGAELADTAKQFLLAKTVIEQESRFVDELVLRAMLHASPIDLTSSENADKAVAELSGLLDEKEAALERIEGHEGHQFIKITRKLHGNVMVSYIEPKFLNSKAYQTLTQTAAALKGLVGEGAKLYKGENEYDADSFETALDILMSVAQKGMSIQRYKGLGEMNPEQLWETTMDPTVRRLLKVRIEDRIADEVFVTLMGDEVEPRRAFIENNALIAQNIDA
# Procedure: as §1, §2
# [7] = biological target: T3, N. gonorrhoeae gyrase GyrA^S91F/D95G; assay: DNA cleavage assay, GyrA^S91F/D95G gyrase; type: biochemical
# Procedure: Some experiments replaced MgCl2 with an equivalent concentration of CaCl2 (10 mM), or 1.5 mM ATP was added to assay mixtures.
# Reactions were incubated at 37 °C for 30 min with WT and mutant (GyrA^D90N, GyrA^A92T, GyrA^S91F, GyrA^D95G, or GyrA^S91F/D95G) N. gonorrhoeae gyrase, 10 min with WT N. gonorrhoeae topoisomerase IV, and 20 min with mutant (ParC^D86N, ParC^S88P, ParC^S87N, or ParC^E91G) N. gonorrhoeae topoisomerase IV. Enzyme-DNA cleavage complexes were trapped by adding 2 μL of 5% SDS followed by 2 μL of 250 mM EDTA (pH 8.0). Proteinase K was added (2 μL of a 0.8 mg/mL solution), and reaction mixtures were incubated at 45 °C for 30 min to digest the enzyme. Samples were mixed with 2 μL of loading buffer and heated at 45 °C for 2 min prior to electrophoresis in 1% agarose gels in 40 mM Tris-acetate (pH 8.3), and 2 mM EDTA containing 0.5 μg/mL ethidium bromide. DNA bands were visualized by midrange ultraviolet light and quantified using an Alpha Innotech digital imaging system (Protein Simple). Single-stranded DNA cleavage was monitored by the conversion of negatively supercoiled to nicked plasmid molecules.
# T1 sequence (P48371 whole entry S91F): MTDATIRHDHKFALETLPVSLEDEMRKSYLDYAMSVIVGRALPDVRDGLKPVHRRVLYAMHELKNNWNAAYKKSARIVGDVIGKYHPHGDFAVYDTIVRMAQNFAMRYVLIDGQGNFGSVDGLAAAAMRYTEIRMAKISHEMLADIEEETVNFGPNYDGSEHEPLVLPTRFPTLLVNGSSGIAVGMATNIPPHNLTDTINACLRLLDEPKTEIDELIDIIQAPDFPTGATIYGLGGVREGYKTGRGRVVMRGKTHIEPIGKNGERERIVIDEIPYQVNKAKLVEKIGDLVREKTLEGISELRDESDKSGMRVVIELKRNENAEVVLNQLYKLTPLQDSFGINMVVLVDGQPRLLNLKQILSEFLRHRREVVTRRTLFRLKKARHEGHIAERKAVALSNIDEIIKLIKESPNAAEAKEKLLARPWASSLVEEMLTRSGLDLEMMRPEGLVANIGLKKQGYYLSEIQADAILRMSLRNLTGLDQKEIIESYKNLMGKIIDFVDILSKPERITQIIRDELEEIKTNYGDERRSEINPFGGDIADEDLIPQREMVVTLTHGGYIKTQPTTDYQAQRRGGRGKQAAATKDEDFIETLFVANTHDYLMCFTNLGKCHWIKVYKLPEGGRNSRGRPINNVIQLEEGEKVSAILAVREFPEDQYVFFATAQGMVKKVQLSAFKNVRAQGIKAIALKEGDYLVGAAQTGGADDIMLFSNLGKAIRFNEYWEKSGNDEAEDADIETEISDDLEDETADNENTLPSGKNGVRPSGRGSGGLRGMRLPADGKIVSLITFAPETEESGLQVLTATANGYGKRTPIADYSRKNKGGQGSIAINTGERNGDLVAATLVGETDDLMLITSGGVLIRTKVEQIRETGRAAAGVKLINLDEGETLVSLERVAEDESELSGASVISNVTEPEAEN
# T1 sequence (P22118 whole entry partner): as the sequence (P22118 whole entry partner) above
smiles,measurement,setting,value
O=c1ccc2ncc(=O)n3c2n1C[C@H]3CN1CCC(NCc2cc3c(cn2)OCCC3)CC1 [gepotidacin],IC50,"[1]; GyrA S91F gyrase, read-out: IC50, inhibition of DNA supercoiling",7.5 µM
same,fold increase of supercoiling IC50 vs WT gyrase,[1]; GyrA S91F vs WT,~1.5 fold
same,MIC,[2]; Neisseria gonorrhoeae,8 µg/mL
same,fold-change in MIC from WT/WT parental strain,[2]; strain FA1090E-3 vs FA1090E,16 fold
same,MIC,[3],1 µg/mL
same,MIC,[4],0.5 µg/mL
same,IC50,[5],1.5 µM
same,IC50,WT N. gonorrhoeae gyrase,5.1 ± 2.3 µM
same,IC50,[6],3.6 ± 2.4 µM
same,"Adj-Max Cleavage, single-stranded DNA breaks",[7],3.9%
same,EC50,"[7]; GyrA S91F/D95G gyrase, read-out: CC50, single-stranded DNA cleavage",0.8 µM
same,fold decrease of adjusted maximal DNA cleavage vs WT,[7]; GyrA S91F/D95G vs WT,~4.4 fold
